ChEMBL document CHEMBL5154807, “Design and development of photoswitchable DFG-Out RET kinase inhibitors” (Eur J Med Chem, 2022)

What was measured:
[1] = target: T1, Proto-oncogene tyrosine-protein kinase receptor Ret (Homo sapiens, UniProt P07949); assay: Inhibition of human RET kinase using IGF1Rtide as substrate incubated for 40 mins and measured by ADP-Glo assay
[2] = Thermal stability of compound in DMSO assessed as half-life; assay type: physicochemical
[3] = Thermal stability of compound in water assessed as half-life; assay type: physicochemical
[4] = Drug degradation in 10 mM GSH after 20 hrs measured by LC-MS analysis; assay type: ADME; details: 10000 µM
[5] = target: T1, Proto-oncogene tyrosine-protein kinase receptor Ret; assay: Inhibition of full-length RET kinase expressed in human HEK293 cells and measured by NanoBRET assay; assay type: cell-based

T1 sequence (P07949 whole entry): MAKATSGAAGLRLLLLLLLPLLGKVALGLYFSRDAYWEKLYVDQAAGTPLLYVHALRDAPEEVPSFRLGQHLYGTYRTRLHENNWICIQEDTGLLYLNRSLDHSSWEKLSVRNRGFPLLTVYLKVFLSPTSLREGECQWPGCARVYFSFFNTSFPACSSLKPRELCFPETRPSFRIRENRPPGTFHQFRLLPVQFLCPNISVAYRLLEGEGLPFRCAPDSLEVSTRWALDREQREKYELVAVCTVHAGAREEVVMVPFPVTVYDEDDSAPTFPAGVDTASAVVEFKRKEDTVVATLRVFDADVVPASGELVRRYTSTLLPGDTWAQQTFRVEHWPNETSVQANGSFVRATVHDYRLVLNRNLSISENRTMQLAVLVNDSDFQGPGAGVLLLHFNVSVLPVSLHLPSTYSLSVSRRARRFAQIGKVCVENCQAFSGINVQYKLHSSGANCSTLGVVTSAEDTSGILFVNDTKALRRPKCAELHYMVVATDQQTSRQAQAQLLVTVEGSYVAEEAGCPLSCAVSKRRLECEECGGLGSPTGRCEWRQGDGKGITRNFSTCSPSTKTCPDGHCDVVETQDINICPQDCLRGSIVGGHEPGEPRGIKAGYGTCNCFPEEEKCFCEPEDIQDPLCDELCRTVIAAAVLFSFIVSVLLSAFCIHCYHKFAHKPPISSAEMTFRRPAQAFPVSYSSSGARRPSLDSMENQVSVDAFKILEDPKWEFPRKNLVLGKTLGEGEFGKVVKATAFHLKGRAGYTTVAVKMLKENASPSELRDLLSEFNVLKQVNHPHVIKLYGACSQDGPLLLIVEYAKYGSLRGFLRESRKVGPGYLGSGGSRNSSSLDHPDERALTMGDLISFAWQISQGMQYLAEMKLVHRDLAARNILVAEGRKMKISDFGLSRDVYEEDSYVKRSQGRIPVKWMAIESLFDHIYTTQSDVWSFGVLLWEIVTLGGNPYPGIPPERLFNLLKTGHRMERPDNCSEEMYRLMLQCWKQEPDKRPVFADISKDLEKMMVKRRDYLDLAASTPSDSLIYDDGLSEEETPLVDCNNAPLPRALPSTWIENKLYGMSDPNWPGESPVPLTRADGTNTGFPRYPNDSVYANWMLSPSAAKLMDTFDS

SMILES | IC50 [1] [nM] | further results
CCCc1cccc2cc(/C=C\c3cccc(C(=O)Nc4ccc(CN5CCN(C)CC5)c(C(F)(F)F)c4)c3)cnc12 | > 500000 | 
CC(C)n1nc(-c2ccc(NC(=O)Nc3cc(C(F)(F)F)ccc3F)cc2)c2c(N)ncnc21 | 1.3 | 
COc1c(/C=C/c2cccc(C(=O)Nc3ccc(CN4CCN(C)CC4)c(C(F)(F)F)c3)c2)cnc2ccccc12 | 12.4 | 
CN1CCN(Cc2ccc(NC(=O)c3cccc(/N=N/c4cnc5[nH]ccc5c4)c3)cc2C(F)(F)F)CC1 | 3 | half-life [2]: 15.7 days; half-life [3]: 26.2 days; Stability [4]: Stable
CN1CCN(Cc2ccc(NC(=O)c3cccc(/C=C/c4cnc5ccccc5c4N4CCCC4)c3)cc2C(F)(F)F)CC1 | 66 | 
CN1CCN(Cc2ccc(NC(=O)c3ccc(F)c(/N=N\c4cnc5ccccc5c4)c3F)cc2C(F)(F)F)CC1 | 17 | half-life [3]: 1.58 days
CC(C)c1cccc2cc(/C=C/c3cccc(C(=O)Nc4ccc(CN5CCN(C)CC5)c(C(F)(F)F)c4)c3)cnc12 | 9800 | 
CCc1cccc2cc(/C=C\c3cccc(C(=O)Nc4ccc(CN5CCN(C)CC5)c(C(F)(F)F)c4)c3)cnc12 | 25000 | 
COc1c(/C=C\c2cccc(C(=O)Nc3ccc(CN4CCN(C)CC4)c(C(F)(F)F)c3)c2)cnc2ccccc12 | 1800 | 
CN1CCN(Cc2ccc(NC(=O)c3cccc(/C=C/c4cnc5ccccc5c4N(C)C)c3)cc2C(F)(F)F)CC1 | 98 | 
CN1CCN(Cc2ccc(NC(=O)c3cccc(/C=C/c4cnc5ccccc5c4)c3)cc2C(F)(F)F)CC1 | 7.8 | 
CN1CCN(Cc2ccc(NC(=O)c3cccc(/N=N\c4cnc5ccccc5c4)c3)cc2C(F)(F)F)CC1 | 15 | 
CCCc1cccc2cc(/C=C/c3cccc(C(=O)Nc4ccc(CN5CCN(C)CC5)c(C(F)(F)F)c4)c3)cnc12 | 5600 | 
CN1CCN(Cc2ccc(NC(=O)c3cccc(/C=C/c4cnc5ccccc5c4Nc4ccccc4)c3)cc2C(F)(F)F)CC1 | 2300 | 

More lines, main results first:

IC50 [1] [nM] | SMILES | further results
257 | Cc1cccc2cc(/C=C/c3cccc(C(=O)Nc4ccc(CN5CCN(C)CC5)c(C(F)(F)F)c4)c3)cnc12 | 
1700 | CCc1cccc2cc(/C=C/c3cccc(C(=O)Nc4ccc(CN5CCN(C)CC5)c(C(F)(F)F)c4)c3)cnc12 | 
11 | CN1CCN(Cc2ccc(NC(=O)c3ccc(F)c(/N=N/c4cnc5ccccc5c4)c3F)cc2C(F)(F)F)CC1 | half-life [2]: 32.5 days; half-life [3]: 1.58 days; Stability [4]: Stable
> 500000 | CC(C)c1cccc2cc(/C=C\c3cccc(C(=O)Nc4ccc(CN5CCN(C)CC5)c(C(F)(F)F)c4)c3)cnc12 | 
9.5 | CN1CCN(Cc2ccc(NC(=O)c3cccc(/N=N/c4cnc5ccccc5c4)c3)cc2C(F)(F)F)CC1 | half-life [2]: 8.67 days; half-life [3]: 9.04 days; Stability [4]: Stable
24 | COc1c(/N=N/c2cccc(C(=O)Nc3ccc(CN4CCN(C)CC4)c(C(F)(F)F)c3)c2)cnc2ccccc12 | IC50 [5]: 920 nM; half-life [2]: 12.6 days; half-life [3]: 16.8 days
49000 | CN1CCN(Cc2ccc(NC(=O)c3cccc(/C=C\c4cnc5ccccc5c4Nc4ccccc4)c3)cc2C(F)(F)F)CC1 | 
363 | COc1c(/N=N\c2cccc(C(=O)Nc3ccc(CN4CCN(C)CC4)c(C(F)(F)F)c3)c2)cnc2ccccc12 | IC50 [5]: 3890 nM
2400 | CN1CCN(Cc2ccc(NC(=O)c3cccc(/C=C\c4cnc5ccccc5c4N(C)C)c3)cc2C(F)(F)F)CC1 | 
900 | CN1CCN(Cc2ccc(NC(=O)c3cccc(/C=C\c4cnc5ccccc5c4)c3)cc2C(F)(F)F)CC1 | 
12600 | Cc1cccc2cc(/C=C\c3cccc(C(=O)Nc4ccc(CN5CCN(C)CC5)c(C(F)(F)F)c4)c3)cnc12 | 
2200 | CN1CCN(Cc2ccc(NC(=O)c3cccc(/C=C\c4cnc5ccccc5c4N4CCCC4)c3)cc2C(F)(F)F)CC1 | 
